# From US10934286B2, “Heterocyclic sulfones as ROR gamma modulators” (BRISTOL-MYERS SQUIBB COMPANY, priority 2016, dated 2021)
# Target: T1, RORγ receptor (Homo sapiens, UniProt P51449)
# T1 construct: Jurkat pEx/Gal/hRORγ CLBD/HYG pG51uc/blast; expressed in transfected cells
# T1 sequence (P51449 269-508 limits assumed): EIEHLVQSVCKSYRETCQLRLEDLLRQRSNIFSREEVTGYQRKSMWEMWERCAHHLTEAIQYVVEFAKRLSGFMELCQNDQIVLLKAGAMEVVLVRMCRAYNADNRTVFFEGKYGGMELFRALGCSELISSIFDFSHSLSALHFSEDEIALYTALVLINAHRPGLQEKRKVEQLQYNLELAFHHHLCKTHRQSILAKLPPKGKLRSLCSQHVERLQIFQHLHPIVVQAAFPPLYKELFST
# Experiment: General RORγ Gal4 reporter assay (inverse agonist activity, inhibition of luminescence)
# Format: cell-based
# Settings: Gal4-luciferase reporter in Jurkat cells stably over-expressing hRORγ LBD; overnight incubation; 40 μM to 0.67 nM
# Protocol: General RORγ Gal4 Reporter Assay Inverse agonist activity of potential ligands to RORγ was measured by inhibition of luminescence in a Gal4-luciferase reporter assay in Jurkat cells.
# The following day, cells were lysed with 10 μL of Steady-Glo Luciferase Assay System (Promega Cat. No. EZ550), and analyzed immediately. IC50 values were determined.
row,Structure (SMILES),IC50 [nM]
1,CC(C)(O)CN1C(=O)[C@H](F)C[C@H]1C(=O)N1CCC2(S(=O)(=O)c3cccc(F)c3)c3ccc(C(F)(C(F)(F)F)C(F)(F)F)nc3CCC12 (stereo partly shown) [Example 48],26
2,CC(C)(O)CN1C(=O)[C@@H]2C[C@@H]2[C@H]1C(=O)N1CCC2(S(=O)(=O)c3cccc(F)c3)c3ccc(C(F)(C(F)(F)F)C(F)(F)F)nc3CCC12 (stereo partly shown) [Example 49],18
3,CC(C)(O)CN1C(=O)[C@H](F)C[C@H]1C(=O)N1CCC2(S(=O)(=O)c3cccc(F)c3)c3cnc(C(F)(C(F)(F)F)C(F)(F)F)cc3CCC12 (stereo partly shown) [Example 50],14
4,CC(C)(O)CN1C(=O)[C@@H]2C[C@@H]2[C@H]1C(=O)N1CCC2(S(=O)(=O)c3cccc(F)c3)c3cnc(C(F)(C(F)(F)F)C(F)(F)F)cc3CCC12 (stereo partly shown) [Example 52],1810
5,CC(C)(O)CN1C(=O)[C@H](F)C[C@H]1C(=O)N1CCC2(S(=O)(=O)c3ccccc3)c3ccc(C(F)(C(F)(F)F)C(F)(F)F)nc3CCC12 (stereo partly shown) [Example 53],18
6,CC(C)(O)CN1C(=O)CCN1C(=O)N1CCC2(S(=O)(=O)c3ccc(F)cc3)c3cnc(C(F)(C(F)(F)F)C(F)(F)F)cc3CCC12 (stereo not shown) [Example 55],31
7,CC(C)(O)CN1C(=O)CCN1C(=O)N1CCC2(S(=O)(=O)c3cccc(F)c3)c3ccc(C(F)(C(F)(F)F)C(F)(F)F)nc3CCC12 (stereo not shown) [Example 56],28
8,CC(C)(O)CN1C(=O)CCN1C(=O)N1CCC2(S(=O)(=O)c3cccc(F)c3)c3cnc(C(F)(C(F)(F)F)C(F)(F)F)cc3CCC12 (stereo not shown) [Example 57],21
9,CC(C)(O)CN1C(=O)CCN1C(=O)N1CCC2(S(=O)(=O)c3ccccc3)c3ccc(C(F)(C(F)(F)F)C(F)(F)F)nc3CCC12 (stereo not shown) [Example 58],12
10,[2H]C([2H])([2H])N1C(=O)[C@H](F)C[C@H]1C(=O)N1CCC2(S(=O)(=O)c3cccc(F)c3)c3ccc(C(F)(C(F)(F)F)C(F)(F)F)nc3CCC12 (stereo partly shown) [Example 63],13
11,[2H]C([2H])([2H])N1C(=O)[C@H](F)C[C@H]1C(=O)N1CCC2(S(=O)(=O)c3ccc(F)cc3)c3ccc(C(F)(C(F)(F)F)C(F)(F)F)nc3CCC12 (stereo partly shown) [Example 64],24
12,[2H]C([2H])([2H])N1C(=O)[C@H](F)C[C@H]1C(=O)N1CCC2(S(=O)(=O)c3cccc(F)c3)c3cnc(C(F)(C(F)(F)F)C(F)(F)F)cc3CCC12 (stereo partly shown) [Example 65],91
13,[2H]C([2H])([2H])N1C(=O)[C@H](F)C[C@H]1C(=O)N1CCC2(S(=O)(=O)c3ccccc3)c3ccc(C(F)(C(F)(F)F)C(F)(F)F)nc3CCC12 (stereo partly shown) [Example 66],31
